Measurements reported in patent publication US8178530B2, “Imidazolopyrazine compounds useful for the treatment of degenerative and inflammatory diseases” (Janssen Pharmaceutica NV, priority 2006, dated 2012).
pEC50: −log10 of the molar value.

Tested on: TNFα release by human PBMCs
Test: Cytokine release by LPS-stimulated human PBMCs (TNFα ELISA)
Type: cell-based
Conditions: PBMC, LPS 1 μg/mL, 24 hr
Experimental: Human peripheral blood mononuclear cells (PBMCs) are isolated from “buffy coats” prepared from the blood of healthy volunteers, isolated essentially according to method of Bøyum (1984). In brief, buffy coat is diluted 1:1 with 1×PBS (Gibco) and 30 mL is carefully put on top of 20 mL Lymphoprep™ (Lucron Bioproducts) in 50 mL Falcon tubes. After centrifugation (35 min, 400 g, 18° C.) the mononuclear cells are collected from the white interphase and washed 3 times with 1×PBS by resuspending and centrifugation (10 min, 200 g). Isolated PBMCs are finally resuspended in RPMI 1640 (Cat. No. 21875, Gibco) that is supplemented with 10% heat-inactivated FBS (Hyclone).
For the assay PBMCs are seeded at 2.5E6 cells/mL in 160 μL in 96-well plates (Nunc). Serial dilution of the test compounds are made first in DMSO (Sigma) and then diluted 50-fold in M199 medium (Gibco) containing 1% heat-inactivated FBS. Compounds are further 1/10 diluted in the assay plates to obtain final DMSO concentration of 0.2%. Cells are preincubated with the compounds for 1 hr at 37° C., 5% CO2. Then, cells are stimulated with LPS (Escherichia coli serotype 026:B6, Cat. No. L2654, Sigma) that is added in a volume of 20 μL to a final concentration of 1 μg/mL and cells are further cultured for 24 hr. The plates are centrifuged and the supernatant is collected and stored at −80° C. until analysis of appropriate dilutions in ELISAs.
The following 384-well chemiluminescent ELISA protocol was developed to measure TNFα levels in the supernatant: White Lumitrac 600 384-well plates (Greiner) are coated with (40 μL/well) anti-TNFα capture antibody (Cat. No. 551220, BD Pharmingen) that is diluted to 1 μg/mL in 1×PBS (Gibco). After overnight incubation at 4° C., plates are washed with 1×PBS (80 g NaCl, 2 g KCl (Sigma), 11.5 g Na2HPO4.7H2O and 2 g KH2PO4 in 10 L milliQ; pH 7.4) and blocked with 100 μL/well buffer B (1×PBS containing 1% BSA (Sigma), 5% sucrose (Sigma) and 0.05% NaN3 (Sigma)). After 4 hr incubation at RT, blocking buffer is removed and plates are washed once with PBST (1×PBS with 0.05% Tween-20 (Sigma)). Then, 40 μL of sample is transferred to the ELISA plates and plates are incubated at 4° C. Next day, plates are washed 3 times (twice with PBST and once with PBS) and 35 μL/well biotinylated anti-TNFα antibody (Cat. No. 554511, BD Pharmingen) diluted first to a concentration of 250 ng/ml in buffer D (1×PBS with 1% BSA) is added. After 2 h of incubation at RT, plates are washed as described above and 35 μL/well of a 1/2000 dilution of streptavidin-HRP conjugate (Cat. No. SNN2004, Biosource) in buffer D is added. After 45 min, plates are washed as described above and incubated for 5 min with 50 μL/well BM Chemiluminescence ELISA Substrate POD (Roche). Readout is performed on the Luminoscan Ascent Luminometer (Labsystems) with an integration time of 100 msec delivering raw data (RLU: relative luminescence units). The following controls are included in the experiments, a maximal signal control, in which the cells are activated by LPS but only the 0.2% DMSO vehicle (and thus no compound) is added. This control indicates the maximal level of TNFα that can be achieved in the test. A minimal signal control is also included in these experiments. Here, cells are not triggered. This control returns the basal TNFα levels produced by the PBMCs. The percent inhibition (PIN) of the TNFα release, achieved by the compounds is then calculated based on the RLU data returned by the ELISA with following formula: 100−[((TNFα level compound X at concentration Y−minimal TNFα levels)/(maximal TNFα levels−minimal TNFα levels))×100]. Where compounds are tested at 8 concentrations (1/3 serial dilution), EC50-values can be calculated by curve fitting of the means of the PIN data achieved for a compound at each test concentration. […]

Structure (SMILES)	pEC50
NC(=O)c1ccc(-c2cnc(Nc3ccc(-c4cccnc4)cc3)c3nccn23)cc1 [Compound 153]	7.00 to 9.00
C[C@@H]1CN(c2ccc(Nc3ncc(-c4ccc(C(N)=O)cc4)n4ccnc34)cc2)C[C@H](C)N1C [Compound 155]	< 6.00
NC(=O)c1ccc(-c2cnc(Nc3ccc(N4CCN(CCO)CC4)cc3)c3nccn23)cc1 [Compound 156]	< 6.00
NC(=O)c1cnc(-c2cnc(Nc3ccc(N4CCOCC4)cc3)c3nccn23)s1 [Compound 158, 2-[8-(4-Morpholin-4-yl-phenylamino)-imidazo[1,2-a]pyrazin-5-yl]-thiazole-5-carboxylic acid amide]	6.30 to 7.00
CN1CCC(COc2ccc(Nc3ncc(-c4ccc(C(N)=O)c(F)c4)n4ccnc34)cc2)CC1 [Compound 159, 2-Fluoro-4-{8-[4-(1-methyl-piperidin-4-ylmethoxy)-phenylamino]-imidazo[1,2-a]pyrazin-5-yl}-benzamide]	< 6.00
c1cn2c(-c3cn[nH]c3C3CC3)cnc(Nc3ccc(N4CCOCC4)cc3)c2n1 [Compound 160, [5-(5-Cyclopropyl-1H-pyrazol-4-yl)-imidazo[1,2-a]pyrazin-8-yl]-(4-morpholin-4-yl-phenyl)-amine]	< 6.00
c1cn2c(-c3c[nH]cn3)cnc(Nc3ccc(N4CCOCC4)cc3)c2n1 [Compound 163]	< 6.00
NC(=O)c1c(F)cc(-c2cnc(Nc3ccc(N4CCOCC4)cc3)c3nccn23)cc1F [Compound 165]	< 6.00
CN(C)Cc1cn(-c2ccc(Nc3ncc(-c4ccc(C(N)=O)cc4)n4ccnc34)cc2)nn1 [Compound 166, 4-{8-[4-(4-Dimethylaminomethyl-[1,2,3]triazol-1-yl)-phenylamino]-imidazo[1,2-a]pyrazin-5-yl}-benzamide]	< 6.00
NC(=O)c1ccc(-c2cnc(Nc3ccc(-n4ccnc4)cc3)c3nccn23)cc1 [Compound 167]	7.00 to 9.00
c1cn(-c2ccc(Nc3ncc(-c4cn[nH]c4)n4ccnc34)cc2)cn1 [Compound 168, (4-Imidazol-1-yl-phenyl)-[5-(1H-pyrazol-4-yl)-imidazo[1,2-a]pyrazin-8-yl]-amine]	< 6.00
Cn1nnc(-c2ccc(Nc3ncc(-c4cn[nH]c4)n4ccnc34)cc2)n1 [Compound 169, [4-(2-Methyl-2H-tetrazol-5-yl)-phenyl]-[5-(1H-pyrazol-4-yl)-imidazo[1,2-a]pyrazin-8-yl]-amine]	< 6.00
CN1CCN(c2ccc(Nc3ncc(-c4ccc(C(N)=O)cc4)n4ccnc34)cc2F)CC1 [Compound 171, 4-{8-[3-Fluoro-4-(4-methyl-piperazin-1-yl)-phenylamino]-imidazo[1,2-a]pyrazin-5-yl}-benzamide]	< 6.00
NC(=O)c1ncc(-c2cnc(Nc3ccc(N4CCOCC4)cc3)c3nccn23)s1 [Compound 173, 5-[8-(4-Morpholin-4-yl-phenylamino)-imidazo[1,2-a]pyrazin-5-yl]-thiazole-2-carboxylic acid amide]	< 6.00
Cc1[nH]ncc1-c1cnc(Nc2ccc(N3CCOCC3)cc2)c2nccn12 [Compound 176]	< 6.00
C[C@@H]1CN(c2ccc(Nc3ncc(-c4cc(F)c(C(N)=O)c(F)c4)n4ccnc34)cc2)[C@@H](C)CN1C [Compound 181]	< 6.00
C[C@@H]1CN(c2ccc(Nc3ncc(-c4csc(C(N)=O)c4)n4ccnc34)cc2)[C@@H](C)CN1C [Compound 186]	< 6.00
C[C@@H]1CN(c2ccc(Nc3ncc(-c4cc(C(N)=O)co4)n4ccnc34)cc2)[C@@H](C)CN1C [Compound 187]	< 6.00
Cc1oc(-c2cnc(Nc3ccc(N4CCOCC4)cc3)c3nccn23)cc1C(N)=O [Compound 188]	< 6.00
CC(C)N1CCN(c2ccc(Nc3ncc(-c4cc(F)c(C(N)=O)c(F)c4)n4ccnc34)cc2)CC1 [Compound 193]	< 6.00
O=C1NCc2cc(-c3cnc(Nc4cccnc4)c4nccn34)ccc21 [Compound 197]	< 6.00
O=C1NCc2cc(-c3cnc(Nc4ccc(N5CCOCC5)cc4)c4nccn34)sc21 [Compound 198, 2-[8-(4-Morpholin-4-yl-phenylamino)-imidazo[1,2-a]pyrazin-5-yl]-4,5-dihydro-thieno[2,3-c]pyrrol-6-one]	< 6.00
CC(C)N1CCN(c2ccc(Nc3ncc(-c4coc(C(N)=O)c4)n4ccnc34)cc2)CC1 [Compound 204, 4-{8-[4-(4-Isopropyl-piperazin-1-yl)-phenylamino]-imidazo[1,2-a]pyrazin-5-yl}-furan-2-carboxylic acid amide]	< 6.00
CC(C)N1CCN(c2ccc(Nc3ncc(-c4ccc5c(c4)CNC5=O)n4ccnc34)cc2)CC1 [Compound 205, 5-{8-[4-(4-Isopropyl-piperazin-1-yl)-phenylamino]-imidazo[1,2-a]pyrazin-5-yl}-2,3-dihydro-isoindol-1-one]	< 6.00
CC(C)N1CCN(c2ccc(Nc3ncc(-c4ccc5c(c4)CNC5=O)n4ccnc34)cn2)CC1 [Compound 210, 5-{8-[6-(4-Isopropyl-piperazin-1-yl)-pyridin-3-ylamino]-imidazo[1,2-a]pyrazin-5-yl}-2,3-dihydro-isoindol-1-one]	< 6.00
CN(C)Cc1cc(Nc2ncc(-c3cn[nH]c3)n3ccnc23)ccc1N1CCOCC1 [Compound 218, (3-Dimethylaminomethyl-4-morpholin-4-yl-phenyl)-[5-(1H-pyrazol-4-yl)-imidazo[1,2-a]pyrazin-8-yl]-amine]	< 6.00
